From ChEMBL document CHEMBL3045010, “Radical scavenging capacities of some thiazolylthiazolidine-2,4-dione derivatives” (Med Chem Res, 2009) come the findings set out here.

Assay type in all cases: functional
The test system of test [1] is Radical scavenging activity. Put plainly: Antioxidant activity against assessed as DPPH radical scavenging activity at 10 '-4 M after 30 min by spectrophotometry relative to control.
The subject of test [2] is Radical scavenging activity. Put plainly: Antioxidant activity against assessed as DPPH radical scavenging activity at 10 '-3 M after 30 min by spectrophotometry relative to control. (DPPH is a stable violet radical that fades when it is reduced.)
Test [3] is described as follows: Antioxidant activity against assessed as superoxide scavenging activity measuring reduction of cytochrome C at 10 '-3 M by spectrophotometry relative to control. Also noted: scale not given: the % may be the effect or the level left.
Test [4] in a line: Antioxidant activity against assessed as superoxide scavenging activity measuring reduction of cytochrome C at 10 '-4 M by spectrophotometry relative to control. Details: scale not given: the % may be the effect or the level left.
Test [5] has as its system Radical scavenging activity. Put plainly: Antioxidant activity against assessed as DPPH radical scavenging activity at 1.25 x 10 '-4 M after 30 min by spectrophotometry relative to control.
Test [6] deals with Radical scavenging activity. Nature of the test: Antioxidant activity against assessed as DPPH radical scavenging activity at 2 x 10 '-4 M after 30 min by spectrophotometry relative to control.

With `O=C1S/C(=C\c2sc(SCc3ccccc3)nc2Cl)C(=O)N1Cc1ccc([N+](=O)[O-])cc1`, the Activity in test [1] was found to be 43%; in test [2] it was 14%; in test [3] it was 11%; in test [4], 96%.

As to `O=C1S/C(=C\c2sc(SCc3ccccc3)nc2Cl)C(=O)N1Cc1ccc(Cl)cc1Cl`, the Activity in test [1] was 58%; in test [2], 20%; in test [3] it was 16%; in test [4], 101%.

As to `O=C1S/C(=C\c2sc(Cl)nc2Cl)C(=O)N1Cc1ccccc1`, the Activity is 47% in test [1], 12% in test [2], 154% in test [3] and 352% in test [4].

For `O=C1S/C(=C\c2sc(SCc3ccccc3)nc2Cl)C(=O)N1Cc1ccccc1`, the Activity in test [1] stood at 77%; in test [2], 26%; in test [3] it was 50%; in test [4], 86%.

`O=C1S/C(=C\c2sc(Cl)nc2Cl)C(=O)N1Cc1ccc([N+](=O)[O-])cc1`: the Activity turned out to be 52% in test [1], 9% in test [2], 339% in test [3] and 114% in test [4].

In the case of `O=C1S/C(=C\c2sc(SCc3ccccc3)nc2Cl)C(=O)N1Cc1ccc(Cl)cc1`, the Activity turned out to be 72% in test [1], 20% in test [2], 31% in test [3] and 91% in test [4].

Consider `O=C1S/C(=C\c2sc(SCc3ccccc3)nc2Cl)C(=O)N1Cc1ccc(F)cc1`, for which the Activity worked out at 67% in test [1], 21% in test [2], 52% in test [3] and 98% in test [4].

Take `O=C1S/C(=C\c2sc(SCc3ccccc3)nc2Cl)C(=O)N1Cc1ccc(Br)cc1`: the Activity in test [1] is 74%; in test [2], 19%; in test [3], 35%; in test [4] it was 88%.

For `O=C1S/C(=C\c2sc(Cl)nc2Cl)C(=O)N1Cc1ccc(Cl)cc1Cl`, the Activity in test [1] amounted to 12%; in test [2] it was 9%; in test [3], 99%; in test [4] it was 110%.

For `O=C1S/C(=C\c2sc(Cl)nc2Cl)C(=O)N1Cc1ccc(Br)cc1`, the Activity was found to be 28% in test [1], 9% in test [2], 124% in test [3] and 127% in test [4].

In the case of `O=C1S/C(=C\c2sc(Cl)nc2Cl)C(=O)N1Cc1ccc(F)cc1`, the Activity was found to be 28% in test [1], 11% in test [2], 73% in test [3] and 129% in test [4].

Regarding `Cc1cc(C(C)(C)C)c(O)c(C(C)(C)C)c1`, the Activity came to 17% in test [2], 52% in test [5] and 37% in test [6].

Turning to `O=C1S/C(=C\c2sc(Cl)nc2Cl)C(=O)N1Cc1ccc(Cl)cc1`, the Activity is 73% in test [1], 57% in test [2], 9% in test [3] and 32% in test [4].
